Results from the NIST ThermoML archive (doi:10.1016/j.jct.2012.01.011).
Numbers after ± are expanded uncertainties.

Experiment: molar heat capacity at constant pressure
Details: Liquid, Flow calorimetry

Row | Compound | molar heat capacity at constant pressure (293.15 K, 100 kPa) [J/K/mol] | molar heat capacity at constant pressure (293.15 K, 10000 kPa) [J/K/mol] | molar heat capacity at constant pressure (293.15 K, 20000 kPa) [J/K/mol] | molar heat capacity at constant pressure (293.15 K, 30000 kPa) [J/K/mol] | molar heat capacity at constant pressure (313.15 K, 100 kPa) [J/K/mol] | molar heat capacity at constant pressure (313.15 K, 10000 kPa) [J/K/mol] | molar heat capacity at constant pressure (313.15 K, 20000 kPa) [J/K/mol] | molar heat capacity at constant pressure (313.15 K, 30000 kPa) [J/K/mol] | molar heat capacity at constant pressure (333.15 K, 100 kPa) [J/K/mol] | molar heat capacity at constant pressure (333.15 K, 10000 kPa) [J/K/mol] | molar heat capacity at constant pressure (333.15 K, 20000 kPa) [J/K/mol] | molar heat capacity at constant pressure (333.15 K, 30000 kPa) [J/K/mol] | molar heat capacity at constant pressure (353.15 K, 100 kPa) [J/K/mol] | molar heat capacity at constant pressure (353.15 K, 10000 kPa) [J/K/mol] | molar heat capacity at constant pressure (353.15 K, 20000 kPa) [J/K/mol] | molar heat capacity at constant pressure (353.15 K, 30000 kPa) [J/K/mol]
1 | CC(C)CCCC(C)CCCC(C)CCCCC(C)CCCC(C)CCCC(C)C (stereo not drawn) [2,6,10,15,19,23-hexamethyltetracosane] | 879 ± 8.9 | 873.5 ± 8.8 | 868.5 ± 8.8 | 865.5 ± 8.7 | 904.4 ± 9.1 | 898.9 ± 9.1 | 896.4 ± 9.1 | 893.4 ± 9 | 943.3 ± 9.5 | 940.8 ± 9.5 | 936.1 ± 9.5 | 929.3 ± 9.4 | 978.8 ± 9.9 | 973.7 ± 9.8 | 963.2 ± 9.7 | 959.8 ± 9.7
2 | CCCCC(CC)COC(=O)c1ccccc1C(=O)OCC(CC)CCCC (stereo not drawn) [bis(2-ethylhexyl) 1,2-benzenedicarboxylate] | 703 ± 7.1 | 701.5 ± 7.1 | 699.9 ± 7.1 | 699.6 ± 7.1 | 726.9 ± 7.3 | 724.9 ± 7.3 | 723 ± 7.3 | 722 ± 7.3 | 751.3 ± 7.6 | 750 ± 7.6 | 747.5 ± 7.6 | 746 ± 7.5 | 774.5 ± 7.8 | 770.5 ± 7.8 | 767.9 ± 7.8 | 763.4 ± 7.7
3 | CCCCC(CC)COC(=O)CCCCCCCCC(=O)OCC(CC)CCCC (stereo not drawn) [bis(2-ethylhexyl) decanedioate] | 810.3 ± 8.2 | 808.5 ± 8.2 | 805.6 ± 8.1 | 803 ± 8.1 | 846.5 ± 8.6 | 843.5 ± 8.5 | 840.1 ± 8.5 | 838.4 ± 8.5 | 878.1 ± 8.9 | 875.5 ± 8.8 | 873.4 ± 8.8 | 871.7 ± 8.8 | 910.9 ± 9.2 | 909.7 ± 9.2 | 907.1 ± 9.2 | 906.3 ± 9.2
